system: 4 PI3K isoforms (Human recombinant GST-PI3K); assay: PI3K scintillation proximity assay, best IC50 obtained with the four isoforms (alpha, beta, delta, gamma); type: biochemical; settings: best IC50 obtained with the four isoforms of PI3K; read-out: Best potency measured on the 4 PI3K isoforms

| IC50 [nM] | Compound |
| --- | --- |
| 140 | COCCCN1CCCC(n2nc(C(=O)N3CCOCC3)c3c2-c2ccccc2S(=O)(=O)C3)C1 (centres unmarked) [Example 172, 1-[1-(3-Methoxypropyl)piperidin-3-yl]-3-(morpholin-4-ylcarbonyl)-1,4-dihydrothiochromeno[4,3-c]pyrazole 5,5-dioxide] |
| 1640 | O=C(c1nn(-c2ccc3[nH]ncc3c2)c2c1CS(=O)(=O)c1ccccc1-2)N1CCOCC1 [Example 203, 1-(1H-Indazol-5-yl)-3-(morpholin-4-ylcarbonyl)-1,4-dihydrothiochromeno[4,3-c]pyrazole 5,5-dioxide] |
| 3510 | CNc1cccc2c1S(=O)(=O)Cc1c(C(=O)N3CCOCC3)nn(-c3ccccc3)c1-2 [Example 212, N-Methyl-3-(morpholin-4-ylcarbonyl)-1-phenyl-1,4-dihydrothiochromeno[4,3-c]pyrazol-6-amine 5,5-dioxide] |
| 584 | CC(C)(c1ccc(-n2nc(C(=O)N3CCOCC3)c3c2-c2ccccc2S(=O)(=O)C3)cc1)N1CCOCC1 [Example 457, 1-[4-(1-Methyl-1-morpholin-4-ylethyl)phenyl]-3-(morpholin-4-ylcarbonyl)-1,4-dihydrothiochromeno[4,3-c]pyrazole 5,5-dioxide] |
| 34 | O=C(c1nn(C2CCCN(CCN3CC[C@@H](F)C3)C2)c2c1CS(=O)(=O)c1ccccc1-2)N1CCOCC1 (single isomer, unassigned) [Example 283] |
| 3460 | CN1c2c(C(=O)N3CCOCC3)nn(-c3ccccc3)c2-c2ccccc2S1(=O)=O [Example 488, 4-Methyl-3-(morpholin-4-ylcarbonyl)-1-phenyl-1,4-dihydropyrazolo[4,3-c][1,2]benzothiazine 5,5-dioxide] |
| 257 | O=C(c1nn(C2CCN(CCn3cccn3)C2)c2c1CS(=O)(=O)c1ccccc1-2)N1CCOCC1 (centres unmarked) [Example 286, 3-(Morpholin-4-ylcarbonyl)-1-{1-[2-(1H-pyrazol-1-yl)ethyl]pyrrolidin-3-yl}-1,4-dihydrothiochromeno[4,3-c]pyrazole 5,5-dioxide] |
| 4950 | O=C(c1nn(-c2cccc(N3CCCC3)c2)c2c1CS(=O)(=O)c1ccccc1-2)N1CCOCC1 [Example 181, 3-(Morpholin-4-ylcarbonyl)-1-(3-pyrrolidin-1-ylphenyl)-1,4-dihydrothiochromeno[4,3-c]pyrazole 5,5-dioxide] |
| 1500 | O=C(c1nn([C@H]2CCCN(C(=O)C3CCOCC3)C2)c2c1CS(=O)(=O)c1ccccc1-2)N1CCOCC1 [Example 397] |
| 735 | O=C(CC1CCCCC1)N1CCC[C@H](n2nc(C(=O)N3CCOCC3)c3c2-c2ccccc2S(=O)(=O)C3)C1 [Example 399] |
| 192 | O=C(c1nn(C2CCN(CCN3CC[C@H](F)C3)C2)c2c1CS(=O)(=O)c1ccccc1-2)N1CCOCC1 (stereo partly drawn) [Example 310, 1-(1-{2-[(3S)-3-Fluoropyrrolidin-1-yl]ethyl}pyrrolidin-3-yl)-3-(morpholin-4-ylcarbonyl)-1,4-dihydrothiochromeno[4,3-c]pyrazole 5,5-dioxide] |
| 904 | O=C(c1nn(-c2ccccc2)c2c1CS(=O)(=O)c1cc(Br)ccc1-2)N1CCOCC1 [Example 122] |
| 431 | COC(=O)c1ccc(Cn2nc(C(=O)N3CCOCC3)c3c2-c2ccccc2S(=O)(=O)C3)o1 [Example 231, Methyl 5-{[3-(morpholin-4-ylcarbonyl)-5,5-dioxidothiochromeno[4,3-c]pyrazol-1(4H)-yl]methyl}-2-furoate] |

Further lines, the compound ahead of its results:

| Compound | IC50 [nM] |
| --- | --- |
| O=C(c1nn(-c2cccc(Cn3ccnc3)c2)c2c1CS(=O)(=O)c1ccccc1-2)N1CCOCC1 [Example 291, 1-[3-(1H-imidazol-1-ylmethyl)phenyl]-3-(morpholin-4-ylcarbonyl)-1,4-dihydrothiochromeno[4,3-c]pyrazole 5,5-dioxide] | 673 |
| O=C(c1nn(C2CCOC2)c2c1CS(=O)(=O)c1ccccc1-2)N1CCOCC1 (centres unmarked) [Example 342, 3-(Morpholin-4-ylcarbonyl)-1-(tetrahydrofuran-3-yl)-1,4-dihydrothiochromeno[4,3-c]pyrazole 5,5-dioxide] | 890 |
| CC1(C)CCCC(n2nc(C(=O)N3CCOCC3)c3c2-c2ccccc2S(=O)(=O)C3)C1 (centres unmarked) [Example 171, 1-(3,3-Dimethylcyclohexyl)-3-(morpholin-4-ylcarbonyl)-1,4-dihydrothiochromeno[4,3-c]pyrazole 5,5-dioxide] | 498 |
| O=C(c1nn(CCCO)c2c1CS(=O)(=O)c1ccccc1-2)N1CCOCC1 [Example 54, 3-[3-(morpholin-4-ylcarbonyl)-5,5-dioxidothiochromeno[4,3-c]pyrazol-1(4H)-yl]propan-1-ol] | 2250 |
| O=C(c1nn(-c2ccc(Cl)cc2)c2c1CS(=O)(=O)c1ccccc1-2)N1CCOCC1 [Example 29, 1-(4-chlorophenyl)-3-(morpholin-4-ylcarbonyl)-1,4-dihydrothiochromeno[4,3-c]pyrazole 5,5-dioxide] | 895 |
| O=C(c1nn([C@@H]2CCCN(CCF)C2)c2c1CS(=O)(=O)c1ccccc1-2)N1CCOCC1 (single isomer, unassigned) [Example 366] | 7970 |
| CC1COCCN1Cc1ccc(-n2nc(C(=O)N3CCOCC3)c3c2-c2ccccc2S(=O)(=O)C3)cc1 (centres unmarked) [Example 357, 1-{4-[(3-Methylmorpholin-4-yl)methyl]phenyl}-3-(morpholin-4-ylcarbonyl)-1,4-dihydrothiochromeno[4,3-c]pyrazole 5,5-dioxide] | 180 |
| O=C(c1nn(C2CCCN(C3COC3)C2)c2c1CS(=O)(=O)c1ccccc1-2)N1CCOCC1 (centres unmarked) [Example 415, 3-(Morpholin-4-ylcarbonyl)-1-(1-oxetan-3-ylpiperidin-3-yl)-1,4-dihydrothiochromeno[4,3-c]pyrazole 5,5-dioxide] | 67 |
| O=C(Nc1cccc(-n2nc(C(=O)N3CCOCC3)c3c2-c2ccccc2S(=O)(=O)C3)c1)N1CCOCC1 [Example 209, N-{3-[3-(Morpholin-4-ylcarbonyl)-5,5-dioxidothiochromeno[4,3-c]pyrazol-1 (4H)-yl]phenyl)morpholine-4-carboxamide] | 3590 |
| COCCN(C)Cc1ccc(-n2nc(C(=O)N3CCOCC3)c3c2-c2ccccc2S(=O)(=O)C3)cc1 [Example 426, 2-Methoxy-N-methyl-N-{4-[3-(morpholin-4-ylcarbonyl)-5,5-dioxidothiochromeno[4,3-c]pyrazol-1(4H)-yl]benzyl}ethanamine] | 113 |
| O=C(c1nn(C2CCN(CCN3CCC(F)CC3)C2)c2c1CS(=O)(=O)c1ccccc1-2)N1CCOCC1 (centres unmarked) [Example 277, 1-{1-[2-(4-Fluoropiperidin-1-yl)ethyl]pyrrolidin-3-yl}-3-(morpholin-4-ylcarbonyl)-1,4-dihydrothiochromeno[4,3-c]pyrazole 5,5-dioxide] | 149 |
| O=C(CC1CCCCC1)N1CCC(n2nc(C(=O)N3CCOCC3)c3c2-c2ccccc2S(=O)(=O)C3)C1 (centres unmarked) [Example 279, 1-[1-(Cyclohexylacetyl)pyrrolidin-3-yl]-3-(morpholin-4-ylcarbonyl)-1,4-dihydrothiochromeno[4,3-c]pyrazole 5,5-dioxide] | 711 |
| O=C(c1nn([C@H]2CCCN(CCC3CCOCC3)C2)c2c1CS(=O)(=O)c1ccccc1-2)N1CCOCC1 (single isomer, unassigned) [Example 306, 3-(morpholin-4-ylcarbonyl)-1-{1-[2-(tetrahydro-2H-pyran-4-yl)ethyl]piperidin-3-yl}-1,4-dihydrothiochromeno[4,3-c]pyrazole 5,5-dioxide] | 34 |
| O=C(c1nn([C@@H]2CCN(CCN3CCC(F)CC3)C2)c2c1CS(=O)(=O)c1ccccc1-2)N1CCOCC1 (single isomer, unassigned) [Example 409, 1-{1-[2-(4-fluoropiperidin-1-yl)ethyl]pyrrolidin-3-yl}-3-(morpholin-4-ylcarbonyl)-1,4-dihydrothiochromeno[4,3-c]pyrazole 5,5-dioxide] | 55 |
| COCCNc1ccc2c(c1)S(=O)(=O)Cc1c(C(=O)N3CCOCC3)nn(-c3ccccc3)c1-2 [Example 327] | 6610 |
| O=C(c1nn(C2CCC(CN3CCOCC3)CC2)c2c1CS(=O)(=O)c1ccccc1-2)N1CCOCC1 (centres unmarked) [Example 215, 3-(Morpholin-4-ylcarbonyl)-1-[4-(morpholin-4-ylmethyl)cyclohexyl]-1,4-dihydrothiochromeno[4,3-c]pyrazole 5,5-dioxide] | 912 |
| O=C(c1nn(C2CCCN(CCn3cccn3)C2)c2c1CS(=O)(=O)c1ccccc1-2)N1CCOCC1 (centres unmarked) [Example 263, 3-(Morpholin-4-ylcarbonyl)-1-{1-[2-(1H-pyrazol-1-yl)ethyl]piperidin-3-yl}-1,4-dihydrothiochromeno[4,3-c]pyrazole 5,5-dioxide] | 169 |
| Cn1nc(C(=O)N2CCOCC2)c2c1-c1ccccc1S(=O)(=O)C2Cc1ccccc1 (centres unmarked) [Example 111, 4-Benzyl-1-methyl-3-(morpholin-4-ylcarbonyl)-1,4-dihydrothiochromeno[4,3-c]pyrazole 5,5-dioxide] | 5270 |
| O=C(c1nn([C@H]2CCCN(C3CCCOC3)C2)c2c1CS(=O)(=O)c1ncccc1-2)N1CCOCC1 (single isomer, unassigned) [Example 381, 3-(morpholin-4-ylcarbonyl)-1-[1-(tetrahydro-2H-pyran-3-yl)piperidin-3-yl]-1,4-dihydropyrazolo[3′,4′:4,5]thiopyrano[2,3-b]pyridine 5,5-dioxide] | 36 |
| O=C(c1nn(C2CCN(CCC3CCOCC3)C2)c2c1CS(=O)(=O)c1c(F)cccc1-2)N1CCOCC1 (centres unmarked) [Example 302, 6-Fluoro-3-(morpholin-4-ylcarbonyl)-1-{1-[2-(tetrahydro-2H-pyran-4-yl)ethyl]pyrrolidin-3-yl}-1,4-dihydrothiochromeno[4,3-c]pyrazole 5,5-dioxide] | 21 |
| CC(=O)OCCN1CCC(n2nc(C(=O)N3CCOCC3)c3c2-c2ccccc2S(=O)(=O)C3)C1 (centres unmarked) [Example 299, 2{3-[3-(Morpholin-4-ylcarbonyl)-5,5-dioxidothiochromeno[4,3-c]pyrazol-1(4H)-yl]pyrrolidin-1-yl)ethyl acetate] | 871 |

same assay, conditions: inhibition at 20 μM

| Compound | Best potency measured on the 4 PI3K isoforms, % inh @20 μM [% inh @20 μM] |
| --- | --- |
| CC(C)CC1COCCN1C(=O)c1nn(-c2ccccc2)c2c1CS(=O)(=O)c1ccccc1-2 (centres unmarked) [Example 332] | 15 |

Source: patent publication US9073940B2, “Tricyclic pyrazol amine derivatives” (MERCK SERONO SA, priority 2009, dated 2015)
